Earlier results, collected in patent US20190032079A1, “SYSTEMIC SYNTHESIS AND REGULATION OF L-DOPA” (MYODOPA LIMITED, priority 2015, published 2019).
Read-outs that look alike come from different tables or passages of the source.

How the values were obtained:
THΔ32 = THΔ32 (Rattus norvegicus, UniProt P04177)
THΔ68 = THΔ68 (Rattus norvegicus, UniProt P04177)
TH [1] = test system: TH
TH [2] = target: TH (Rattus norvegicus, UniProt P04177)
[3] = intra-intestinal infusion; improved control of PD and dyskinesia
[4] = preincubation with stoichiometric amounts of dopamine

Chain of TH (Rattus norvegicus, UniProt P04177) (P04177 whole entry, the tested form may be a part): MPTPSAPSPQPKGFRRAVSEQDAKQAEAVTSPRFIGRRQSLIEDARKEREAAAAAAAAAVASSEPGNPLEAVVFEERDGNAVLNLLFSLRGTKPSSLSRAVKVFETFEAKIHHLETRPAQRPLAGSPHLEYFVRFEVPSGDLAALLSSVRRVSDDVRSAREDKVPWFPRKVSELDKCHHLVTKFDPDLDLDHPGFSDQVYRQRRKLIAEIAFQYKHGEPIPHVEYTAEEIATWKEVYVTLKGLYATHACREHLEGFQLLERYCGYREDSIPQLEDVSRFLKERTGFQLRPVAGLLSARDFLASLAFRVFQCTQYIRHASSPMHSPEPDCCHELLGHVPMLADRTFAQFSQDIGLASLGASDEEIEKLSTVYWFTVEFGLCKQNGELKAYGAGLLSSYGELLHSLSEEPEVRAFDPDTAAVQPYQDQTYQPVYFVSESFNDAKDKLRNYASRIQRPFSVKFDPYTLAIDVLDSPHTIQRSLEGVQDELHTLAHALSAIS
Chain of THΔ32 (P04177 33-498 limits assumed, stated change not applied): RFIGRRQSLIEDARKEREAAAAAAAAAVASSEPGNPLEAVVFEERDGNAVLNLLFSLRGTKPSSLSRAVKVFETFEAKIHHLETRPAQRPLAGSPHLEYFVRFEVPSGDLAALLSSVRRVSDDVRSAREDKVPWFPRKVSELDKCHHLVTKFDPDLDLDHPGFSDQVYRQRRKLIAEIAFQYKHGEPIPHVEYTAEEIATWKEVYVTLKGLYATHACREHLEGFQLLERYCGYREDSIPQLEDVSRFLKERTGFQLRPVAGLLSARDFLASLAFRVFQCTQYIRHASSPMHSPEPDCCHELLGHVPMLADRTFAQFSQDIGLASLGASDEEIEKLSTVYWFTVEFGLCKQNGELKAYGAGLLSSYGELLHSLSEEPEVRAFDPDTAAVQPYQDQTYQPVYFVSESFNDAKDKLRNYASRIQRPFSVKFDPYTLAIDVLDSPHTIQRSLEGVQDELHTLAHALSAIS
Chain of THΔ68 (P04177 69-498 limits assumed, stated change not applied): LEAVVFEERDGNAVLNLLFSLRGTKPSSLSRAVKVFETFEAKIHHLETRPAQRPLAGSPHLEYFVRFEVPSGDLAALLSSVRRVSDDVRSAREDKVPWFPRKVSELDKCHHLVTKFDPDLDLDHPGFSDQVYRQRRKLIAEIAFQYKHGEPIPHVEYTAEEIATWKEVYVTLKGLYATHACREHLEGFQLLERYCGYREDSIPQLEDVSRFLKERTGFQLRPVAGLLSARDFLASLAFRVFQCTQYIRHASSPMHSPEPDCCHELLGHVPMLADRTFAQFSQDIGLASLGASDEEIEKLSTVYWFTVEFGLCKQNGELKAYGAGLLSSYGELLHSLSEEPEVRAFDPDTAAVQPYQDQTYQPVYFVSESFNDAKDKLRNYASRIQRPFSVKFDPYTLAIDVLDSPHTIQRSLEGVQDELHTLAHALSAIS

NCCc1ccc(O)c(O)c1 [dopamine]
dopamine release from the enzyme (THΔ32): not released | inhibition by dopamine (THΔ32; [4]): 90% | dopamine release from the enzyme (THΔ68): rapidly released | inhibition by dopamine (THΔ68; [4]): not inhibited | increase of TH activity on dissociation of dopamine from the low-affinity site (TH [1]; Ser40-phosphorylated enzyme): 9 fold | increase of TH activity on dissociation of dopamine from the low-affinity site (TH [1]; non-phosphorylated enzyme): 12 fold | Kd (TH [1]; read-out: K(D), second low affinity dopamine-binding site, present in non-phosphorylated and Ser40-phosphorylated forms): 90 nM | binds more tightly than DOPA (TH [2]; relative to DOPA): 1000 fold | decrease of DA affinity for TH when the enzyme is phosphorylated (TH [2]; ser40 phosphorylation): 300 fold

N[C@@H](Cc1ccc(O)c(O)c1)C(=O)O [L-DOPA, L-3,4-dihydroxyphenylalanine]
therapeutic range for plasma L-DOPA: 0.2 to 1.5 mg/L

O=C(O)Cc1ccc(O)c(O)c1 [dihydroxyphenylacetate]
binds less tightly than DOPA (TH [2]; relative to DOPA): 100 fold

COC(=O)[C@@H](N)Cc1ccc(O)c(O)c1 [levodopa methyl ester]
plasma levels of Levodopa [3]: 3000 to 4000 ng/mL
